Here are results for 2 compounds from PMC3885247 (Journal of medicinal chemistry, 2008).

One may read the pIC50 as the IC50 on a negative log10 scale, so that one unit is a factor of ten. A higher pIC50 goes with a small IC50.

In experiment [1] the target is T1, pcDHFR (Pneumocystis carinii, UniProt P16184).
T1 sequence (P16184 1-206): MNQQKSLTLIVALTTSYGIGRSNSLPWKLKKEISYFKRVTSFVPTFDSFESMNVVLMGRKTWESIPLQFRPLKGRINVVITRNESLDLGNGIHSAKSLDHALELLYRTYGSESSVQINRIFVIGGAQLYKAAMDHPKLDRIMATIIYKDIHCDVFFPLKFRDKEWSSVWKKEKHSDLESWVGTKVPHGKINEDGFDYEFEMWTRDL
Conditions: previously reported quinazolines; cited from earlier work.

In experiment [2] the target is T2, tgDHFR (Toxoplasma gondii, UniProt Q07422).
T2 sequence (Q07422 1-610): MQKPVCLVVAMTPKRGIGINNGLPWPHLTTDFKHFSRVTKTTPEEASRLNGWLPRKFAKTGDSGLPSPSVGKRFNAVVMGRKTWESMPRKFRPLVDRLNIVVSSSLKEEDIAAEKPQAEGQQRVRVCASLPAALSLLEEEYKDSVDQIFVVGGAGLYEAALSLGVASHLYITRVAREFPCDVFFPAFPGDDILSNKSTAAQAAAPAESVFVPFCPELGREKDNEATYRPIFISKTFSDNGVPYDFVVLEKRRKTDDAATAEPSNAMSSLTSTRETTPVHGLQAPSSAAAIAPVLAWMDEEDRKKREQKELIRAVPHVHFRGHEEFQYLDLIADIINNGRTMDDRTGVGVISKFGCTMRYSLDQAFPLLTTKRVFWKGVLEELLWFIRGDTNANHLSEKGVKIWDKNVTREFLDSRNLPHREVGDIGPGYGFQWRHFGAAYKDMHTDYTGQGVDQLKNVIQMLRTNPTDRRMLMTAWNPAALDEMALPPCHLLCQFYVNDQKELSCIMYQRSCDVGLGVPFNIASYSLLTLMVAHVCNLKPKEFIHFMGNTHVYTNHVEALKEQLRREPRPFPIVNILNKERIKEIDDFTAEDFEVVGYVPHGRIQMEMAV
The note with it: previously reported quinazolines; cited from earlier work.

The target in experiment [3] is T1, pcDHFR. In words: Inhibition of P. carinii DHFR. The experiment is classed as biochemical.
The target of the next experiment is T3, rlDHFR (Rattus norvegicus, UniProt Q920D2).
T3 sequence (Q920D2 1-187): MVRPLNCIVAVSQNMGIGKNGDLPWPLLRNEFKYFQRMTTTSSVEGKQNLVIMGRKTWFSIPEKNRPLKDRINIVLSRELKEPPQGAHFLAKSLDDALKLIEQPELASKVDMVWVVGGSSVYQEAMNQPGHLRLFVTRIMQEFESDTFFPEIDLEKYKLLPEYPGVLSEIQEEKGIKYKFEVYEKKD
In words: Inhibition of rat liver DHFR. It counts as biochemical.

In experiment [4] the target is T2, tgDHFR. In words: biochemical.
The next experiment concerns the target T4, maDHFR (Mycobacterium avium, UniProt O30463).
T4 sequence (O30463 1-181): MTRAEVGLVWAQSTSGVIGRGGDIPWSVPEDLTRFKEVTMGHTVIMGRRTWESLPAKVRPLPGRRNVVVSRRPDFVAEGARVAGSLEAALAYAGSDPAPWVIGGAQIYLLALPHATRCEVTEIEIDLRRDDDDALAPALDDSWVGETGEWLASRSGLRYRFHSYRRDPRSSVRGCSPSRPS
In words: Inhibition of M. avium DHFR. It counts as biochemical.

pIC50: −log10 of the molar value.

`COc1ccc(OC)c(CNc2ccc3nc(N)nc(N)c3c2)c1` [Compound 3]: at pcDHFR [1], the Selectivity ratio rl/pc is given as 0.2. For the same compound, on tgDHFR [2], the Selectivity ratio rl/tg was 7.
With `COc1ccc(OC)c(CN(CC2CC2)c2ccc3nc(N)nc(N)c3c2)c1` [Compound 12, 2,4-Diamino-6-[N-(2,5-dimethoxybenzyl)-N-cyclopropylmethylamino]quinazoline], the pIC50 on pcDHFR [3] is 7.60; against rlDHFR, 8.02; against tgDHFR [4] it was 8.14; against maDHFR, 7.80. In addition, the “Selectivity ratio rl/pc (IC50 rlDHFR/IC50 pcDHFR)” value on pcDHFR [3] was determined as 0.4. For the same compound, the “Selectivity ratio rl/tg (IC50 rlDHFR/IC50 tgDHFR)” value on tgDHFR [4] came to 1.3. Further, the “Fold decrease in potency against maDHFR compared to 10” value on maDHFR (comparator 10) came to 5 fold.
